# Literature values, collected in PMC10025480 (Frontiers in Pharmacology, 2023).
# System: human vascular smooth muscle preparations
# Details: ref Papp et al., 2019; cited from earlier work
smiles,measurement,value
CCc1oc2ccccc2c1C(=O)c1cc(Br)c(O)c(Br)c1 [benzbromarone],effect on vascular smooth muscle in vitro,relax
